For orientation: EC50 means the concentration needed to bring the measured effect to its halfway point. Broadly, the IC50 is the concentration that inhibits the measured activity by half.

Consider 13 molecules from ChEMBL document CHEMBL1201862, “PubChem BioAssay data set” (2004).

The nature of assay [1]: growth suppression of beta-catenin-knockout colon cells, dose response, cell-based, HCT116, human colon tumor (AID 1045).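 Note: HCT116 colon tumor cells with beta catenin knocked out; cells exposed to compound for 60 hours.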 Format: functional.
Assay [2] is described as follows: growth suppression of PTEN-null colon cells, dose response, cell-based, HCT116 PTEN knockout (AID 1047).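 Note: HCT116 colon tumor cells with PTEN knocked out; cells exposed to compound for 60 hours before readout; potency for loss of cell viability measured by luminescence.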 Format: functional.
Assay [3] addresses T1, Calpain-2 catalytic subunit (Sus scrofa, UniProt P43367).
T1 sequence (P43367 whole entry): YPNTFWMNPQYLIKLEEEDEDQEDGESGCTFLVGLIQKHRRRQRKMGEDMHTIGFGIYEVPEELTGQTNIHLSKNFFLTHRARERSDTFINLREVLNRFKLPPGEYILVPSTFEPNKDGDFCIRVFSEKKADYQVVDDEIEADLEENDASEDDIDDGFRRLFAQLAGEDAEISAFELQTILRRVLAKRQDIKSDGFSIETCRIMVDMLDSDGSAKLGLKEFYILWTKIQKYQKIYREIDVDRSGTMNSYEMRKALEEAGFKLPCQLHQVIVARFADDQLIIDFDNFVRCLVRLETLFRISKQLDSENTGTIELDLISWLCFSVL
Put plainly: pig calpain II inhibitor potency, dose response, biochemical, fluorogenic peptide substrate (AID 1420). Format: functional.

For assay [4], the system named is Streptococcus sp. 'group A'. Put plainly: growth inhibition of control SK(-) GAS strain, dose response, counter-screen for streptokinase expression inhibitor project, luminescence, kanamycin, BacTiterGlo, confirmation (AID 1900). Format: functional, organism-based.
A further assay deals with Streptococcus. Put plainly: Group A Streptococcus viability loss, dose response, counter-screen for streptokinase expression inhibitor project, luminescence, BacTiterGlo (AID 1915).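 Note: potency for reduction of bacterial viability or growth.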 It is filed as functional, organism-based.
A further assay concerns the target T2, Streptokinase A (Streptococcus pyogenes serotype M1, UniProt P10520).
T2 sequence (P10520 whole entry): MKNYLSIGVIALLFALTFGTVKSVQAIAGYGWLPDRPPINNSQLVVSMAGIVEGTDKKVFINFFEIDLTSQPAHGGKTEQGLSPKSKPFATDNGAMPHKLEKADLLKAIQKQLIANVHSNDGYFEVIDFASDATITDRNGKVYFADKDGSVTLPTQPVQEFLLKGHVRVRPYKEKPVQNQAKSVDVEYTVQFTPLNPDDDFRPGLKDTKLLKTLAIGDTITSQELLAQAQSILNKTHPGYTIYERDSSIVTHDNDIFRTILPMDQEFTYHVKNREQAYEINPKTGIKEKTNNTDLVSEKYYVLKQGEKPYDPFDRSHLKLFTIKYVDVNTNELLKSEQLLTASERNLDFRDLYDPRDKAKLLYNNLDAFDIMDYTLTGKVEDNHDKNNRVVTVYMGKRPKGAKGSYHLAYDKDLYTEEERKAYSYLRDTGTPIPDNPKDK
Put plainly: S. pyogenes streptokinase expression inhibitors, potency, dose response, plasminogen activation absorbance, OD405 (AID 1914).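 Note: secreted streptokinase activity via plasminogen activation per viability signal from cell pellet.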 It is filed as functional, Streptococcus pyogenes M1 GAS.

Another assay deals with T3, Protein skinhead-1 (Caenorhabditis elegans, UniProt P34707).
T3 sequence (P34707 whole entry): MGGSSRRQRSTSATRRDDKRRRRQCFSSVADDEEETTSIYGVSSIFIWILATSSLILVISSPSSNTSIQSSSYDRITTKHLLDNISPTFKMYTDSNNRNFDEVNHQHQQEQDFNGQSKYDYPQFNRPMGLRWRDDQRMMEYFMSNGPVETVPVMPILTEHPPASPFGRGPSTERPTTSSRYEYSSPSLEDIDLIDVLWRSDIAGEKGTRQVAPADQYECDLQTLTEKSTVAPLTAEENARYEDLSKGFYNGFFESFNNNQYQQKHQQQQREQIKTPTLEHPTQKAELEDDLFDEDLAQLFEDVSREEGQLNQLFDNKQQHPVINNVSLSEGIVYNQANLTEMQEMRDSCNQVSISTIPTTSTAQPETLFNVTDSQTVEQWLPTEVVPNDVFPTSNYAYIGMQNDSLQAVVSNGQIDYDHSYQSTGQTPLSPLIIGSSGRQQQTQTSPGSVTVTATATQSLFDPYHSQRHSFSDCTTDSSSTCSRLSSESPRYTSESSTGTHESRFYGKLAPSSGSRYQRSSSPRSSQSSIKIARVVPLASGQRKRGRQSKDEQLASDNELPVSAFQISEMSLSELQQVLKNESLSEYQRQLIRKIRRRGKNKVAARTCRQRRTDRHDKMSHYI
Format: functional.

The target of a further assay is T4, Caspase-3 (Homo sapiens, UniProt P42574).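 Note: Dose-response selectivity test against caspase-3 for candidate inhibitors of sentrin-specific proteases (SENPs).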
T4 sequence (P42574 whole entry): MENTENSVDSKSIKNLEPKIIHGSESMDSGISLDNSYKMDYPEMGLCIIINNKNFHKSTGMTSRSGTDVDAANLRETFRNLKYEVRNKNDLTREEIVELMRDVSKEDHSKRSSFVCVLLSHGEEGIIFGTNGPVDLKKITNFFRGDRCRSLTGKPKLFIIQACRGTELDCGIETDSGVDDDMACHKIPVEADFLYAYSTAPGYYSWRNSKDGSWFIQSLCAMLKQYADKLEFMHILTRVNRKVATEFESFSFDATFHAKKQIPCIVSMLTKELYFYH
It is filed as functional.

For assay [5], the target named is T5, Sentrin-specific protease 6 (Homo sapiens, UniProt Q9GZR1).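 Note: Luminescence-based dose-response confirmatory assay of SENP6 inhibition, following up an ultra-high-throughput screen.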
T5 sequence (Q9GZR1 whole entry): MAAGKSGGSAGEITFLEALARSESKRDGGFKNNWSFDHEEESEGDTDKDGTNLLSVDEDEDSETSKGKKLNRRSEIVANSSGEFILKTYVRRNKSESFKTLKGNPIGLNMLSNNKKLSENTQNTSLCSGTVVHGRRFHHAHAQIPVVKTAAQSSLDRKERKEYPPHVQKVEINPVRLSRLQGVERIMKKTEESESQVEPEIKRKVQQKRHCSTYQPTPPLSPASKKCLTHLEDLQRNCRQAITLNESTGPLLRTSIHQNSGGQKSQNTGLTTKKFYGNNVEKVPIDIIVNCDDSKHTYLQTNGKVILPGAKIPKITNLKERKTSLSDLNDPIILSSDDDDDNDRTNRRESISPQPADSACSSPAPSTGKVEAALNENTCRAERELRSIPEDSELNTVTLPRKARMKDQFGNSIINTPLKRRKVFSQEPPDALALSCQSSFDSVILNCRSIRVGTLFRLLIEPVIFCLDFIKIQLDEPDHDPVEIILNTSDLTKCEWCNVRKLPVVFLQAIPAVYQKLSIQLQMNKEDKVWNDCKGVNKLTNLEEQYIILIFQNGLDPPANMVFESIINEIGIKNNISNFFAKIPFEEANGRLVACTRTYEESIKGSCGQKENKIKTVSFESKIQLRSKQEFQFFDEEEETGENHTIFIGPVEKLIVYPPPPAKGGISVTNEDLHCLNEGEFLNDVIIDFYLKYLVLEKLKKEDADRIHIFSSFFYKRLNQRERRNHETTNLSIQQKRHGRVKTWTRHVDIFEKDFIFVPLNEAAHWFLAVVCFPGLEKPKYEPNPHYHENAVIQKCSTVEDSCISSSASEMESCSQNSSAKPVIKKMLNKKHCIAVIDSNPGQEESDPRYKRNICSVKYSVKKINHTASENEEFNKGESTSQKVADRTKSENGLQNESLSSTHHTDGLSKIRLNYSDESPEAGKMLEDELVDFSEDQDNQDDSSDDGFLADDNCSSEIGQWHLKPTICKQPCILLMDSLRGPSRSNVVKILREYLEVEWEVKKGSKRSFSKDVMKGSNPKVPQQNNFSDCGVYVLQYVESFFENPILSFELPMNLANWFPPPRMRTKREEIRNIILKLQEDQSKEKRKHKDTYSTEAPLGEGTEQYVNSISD
Format: functional.

Assay [6] addresses T6, Sentrin-specific protease 8 (Homo sapiens, UniProt Q96LD8).
T6 sequence (Q96LD8 whole entry): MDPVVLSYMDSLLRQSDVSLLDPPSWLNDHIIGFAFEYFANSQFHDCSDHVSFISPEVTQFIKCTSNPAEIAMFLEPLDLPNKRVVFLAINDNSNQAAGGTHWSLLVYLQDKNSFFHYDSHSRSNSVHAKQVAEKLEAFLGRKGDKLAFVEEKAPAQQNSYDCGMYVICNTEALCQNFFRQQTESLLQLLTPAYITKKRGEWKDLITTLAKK
It is filed as functional.

The target of assay [7] is T7, Sentrin-specific protease 7 (Homo sapiens, UniProt Q9BQF6).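 Note: Luminescence-based dose-response confirmation of ultra-high-throughput screening hits, measuring inhibition of SENP7.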
T7 sequence (Q9BQF6 whole entry): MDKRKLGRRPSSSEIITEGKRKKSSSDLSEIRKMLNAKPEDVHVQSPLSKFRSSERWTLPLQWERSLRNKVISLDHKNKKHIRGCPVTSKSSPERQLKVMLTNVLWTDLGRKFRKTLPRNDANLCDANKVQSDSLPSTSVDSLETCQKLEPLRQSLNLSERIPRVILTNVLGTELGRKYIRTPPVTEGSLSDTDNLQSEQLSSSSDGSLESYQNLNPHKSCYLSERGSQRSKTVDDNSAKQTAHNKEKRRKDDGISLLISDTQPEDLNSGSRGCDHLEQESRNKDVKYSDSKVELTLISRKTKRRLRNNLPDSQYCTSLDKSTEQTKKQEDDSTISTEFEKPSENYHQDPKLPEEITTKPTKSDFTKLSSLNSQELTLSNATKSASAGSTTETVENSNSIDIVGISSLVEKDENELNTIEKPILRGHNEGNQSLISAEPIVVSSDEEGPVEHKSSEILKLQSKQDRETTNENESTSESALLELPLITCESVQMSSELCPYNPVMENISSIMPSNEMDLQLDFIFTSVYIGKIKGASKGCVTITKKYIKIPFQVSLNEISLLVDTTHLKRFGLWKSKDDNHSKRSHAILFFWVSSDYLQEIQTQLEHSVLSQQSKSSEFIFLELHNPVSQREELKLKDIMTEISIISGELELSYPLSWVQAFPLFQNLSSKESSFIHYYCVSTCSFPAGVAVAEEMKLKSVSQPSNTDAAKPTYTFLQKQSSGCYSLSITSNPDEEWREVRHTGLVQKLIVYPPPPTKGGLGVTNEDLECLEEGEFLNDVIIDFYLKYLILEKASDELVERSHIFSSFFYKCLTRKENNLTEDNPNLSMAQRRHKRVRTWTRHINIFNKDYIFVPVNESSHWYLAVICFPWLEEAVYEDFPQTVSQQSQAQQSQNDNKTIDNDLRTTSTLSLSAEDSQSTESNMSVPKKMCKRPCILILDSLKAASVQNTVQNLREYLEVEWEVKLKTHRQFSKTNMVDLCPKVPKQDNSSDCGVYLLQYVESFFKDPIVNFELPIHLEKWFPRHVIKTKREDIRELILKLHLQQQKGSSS
It is filed as functional.

The structures appear in SMILES notation. The source made the active and inactive calls.

For `COC(=O)c1ccc(-c2csc(NC(=O)c3ccc(S(=O)(=O)N4CCc5ccccc5C4)cc3)n2)cc1`, the 50% effective concentration (EC50) was 10.2 µM (active) in assay [1] and 10.3 µM (active) in [2].
Turning to `O=C(CN=C(S)N(Cc1ccccc1)Cc1cccs1)NCc1ccc(F)cc1`, the IC50 in assay [3] is recorded as 9.61 µM (not active).
`N#CCOc1nc(N2CCCC2)nc(N2CCCC2)n1`: in [3], the IC50 is given as 14.3 µM (not active).
For the molecule `CC(C)=CC(=O)Nc1nnc(-c2ccc(F)cc2)s1`, the EC50 was 13.8 µM (active) in assay [1] and 18.2 µM (active) in assay [2].
For the molecule `COc1cc2c(cc1OC)CN(c1nc(CN3CCOCC3)nc3sc4c(c13)CCCC4)CC2`, the EC50 in assay [1] is 6.69 µM (active); in assay [2], 4.64 µM (active).
Regarding `CC(C)C[C@H](NC(=O)c1[nH]cnc1C(=O)N[C@@H](CCCCNC(=O)OC(C)(C)C)C(=O)OC(C)(C)C)C(=O)OC(C)(C)C`, the IC50 in assay [3] is listed as 3.89 µM (not active).
Regarding `O=C(CCCOc1ccc(Cl)cc1Cl)N1CCc2ccccc2C1`, the IC50 in assay [3] is given as 7.32 µM (not active).
Take `COC(=O)c1c(C)oc(C)c1S(=O)(=O)Nc1ccc(C(C)C)cc1`: the IC50 in assay [3] is given as 11.4 µM (not active).
As to `CCOc1cc(C(=O)N/N=C\c2cn(CC)nc2C)cc(OCC)c1OCC`, the concentration for half-maximal inhibition (IC50) in assay [3] was > 50 µM (not active).
In the case of `CC(C)NC(=O)NC(=O)CSc1nnc(COc2ccccc2F)n1C(C)C1CC2CCC1C2` (centres undefined), the EC50 in assay [4] is 5.26 µM (active); in the assay with Streptococcus it was > 150 µM (not active); at Streptokinase A, 16.8 µM (active); in assay [1], 20.8 µM (active); in assay [2], 19 µM (active).
Consider `CN(C)c1ncc(S(=O)(=O)c2ccc(Cl)cc2)c(-c2ccccc2)n1`, for which the IC50 in assay [3] is reported as 8.73 µM (not active).
The same measure, in the same setting: the value for `CC(C)c1ccc(CNc2ccc([N+](=O)[O-])cn2)cc1` was 6.03 µM (active).
In the case of `Clc1ccsc1-c1csc(-c2cccnc2)n1`, the IC50 on Protein skinhead-1 was > 100 µM (inactive); on Caspase-3, 19.4 µM (active); in assay [5], 11.3 µM (active); in [6], 22.6 µM (active); in assay [7] it was 6.3 µM (active).
